We go through 1 compound from patent US20250051350A1, “Dihydroartemisinin derivatives and the treatment of fibrotic diseases” (GreenStone Biosciences, Inc., priority 2023, published 2025).

The nature of one data set: Solubility of PT-30. The class given is physicochemical. The protocol:
(§1) PT-30, DHA 5-oxo-2,6-diazaspiro[3.4]octane-2-carboxylate, (3R,5aS,6R,8aS,9R,12S,12aR)-decahydro-3,6,9-trimethyl-3,12-epoxy-12H-pyrano[4,3-j]-1,2-benzodioxepin-10-yl 5-oxo-2,6-diazaspiro[3.4]octane-2-carboxylate, was a white crystalline solid as prepared. […] PT-30 had low solubility (<0.1 mg/mL) in aqueous acidic conditions and in simulated gastric fluid, and a solubility of about 0.7 mg/mL in fasted-state and fed-state simulated intestinal fluids.

The test system of data set [1] is bleomycin injury mouse skin model. The experiment in a line: Bleomycin injury mouse skin model. In kind it is in vivo. The conditions noted are these: topical administration (50 μL, 100 μM in 0.1% DMSO/PBS).
Data set [2] is described as follows: Intravenous and oral pharmacokinetics in mice. In kind it is in vivo. The conditions noted are these: mouse, plasma, male C57BL/6J mice. As for the experimental part: The intravenous (IV) and oral (PO) pharmacokinetics of the PT compounds were measured in 6-10 week-old male C57BL/6J mice, using three mice/group. The test compounds were formulated in an appropriate water-based vehicle to give a clear solution for IV administration, or a clear solution or uniform suspension for PO administration. Animals were dosed within 4 hours of the preparation of the formulations; with the dose volume being determined by the animal's body weight measured on the morning of the dosing day. Blood samples (about 25 μL per time point) were taken at 5 and 15 minutes and 1, 3, and 5 hours after dosing, into pre-chilled EDTA-K2 tubes and kept on wet ice until centrifugation. The tubes were centrifuged at 3200×g at about 4° C. for 10 minutes, and the plasma analyzed by LC-MS/MS.

Data set [3] deals with primary pulmonary fibroblasts. The experiment in a line: Antifibrotic efficacy in primary pulmonary fibroblasts. The class given is cell-based.
Data set [4] relates to MD2 signaling pathway (HEK Blue-TLR4 cells). Nature of the data set: HEK Blue-TLR4 assay (MD2 pathway). The conditions noted are these: 1 h preincubation, 10 ng/mL lipopolysaccharide, read after 20 hours at 655 nm. The class given is cell-based. As for the experimental part: HEK Blue-TLR4 cells were plated in detection media, preincubated with vehicle or PT-2, PT-14, or PT-30 dissolved in vehicle (with artesunate, DHA, and artemisinin comparators) for 1 h, then co-stimulated with 10 ng/mL lipopolysaccharide. Reporter activity was read after 20 hours at 655 nm in a spectrophotometer. The PT compounds were active in this assay, showing that they inhibit the MD2 signaling pathway.

The nature of data set [5]: Solid-state stability of PT-30. The class given is physicochemical. As for the experimental part: as §1
A short description of a further data set: Hygroscopicity of PT-30. The class given is physicochemical. Conditions: from 40% to 95% RH. As for the experimental part:
as §1

The test system of data set [6] is CCl4 injury mouse liver model. The experiment in a line: CCl4 injury mouse liver model. In kind it is in vivo. Conditions: oral administration.
A further data set in a line: in vitro. The class given is in vitro ADME. The conditions noted are these: for fraction unbound: plasma. The protocol:
Plasma protein binding assays were conducted in triplicate for compounds PT-2, PT-14, PT-28, and PT-30, with artesunate, DHA, and warfarin as comparators.

In data set [7] the test system is Induced pluripotent stem cell-derived cardiac fibroblasts (ACTA2-GFP). Nature of the data set: Antifibrotic effects in TGF-β-activated iPSC-derived cardiac fibroblasts (ACTA2-GFP fluorescence). In kind it is cell-based. The conditions noted are these: TGF-β-activated iPSC-derived cardiac fibroblasts. The source says:
Induced pluripotent stem cell-derived cardiac fibroblasts were constructed containing a fusion of the alpha-smooth muscle actin to the green fluorescent protein (ACTA2-GFP) construct. ACTA2 is a myofibroblast marker, such that the fibroblasts fluoresce with an intensity dependent on the extent of fibrosis.

≈ marks a conversion by molar mass, not a printed value. Read-outs that look alike come from different tables or passages of the source. Bounds are passed on as bounds.

The term solubility denotes the concentration that dissolves in the medium under given conditions. Low values mean little dissolved substance, high ones much dissolved substance. As a reminder, the bioavailability is dose-corrected exposure relative to a reference, in per cent. Lower therefore signals poor availability. Broadly, the fraction unbound is the share of the substance not bound to proteins or other matrix. With `C[C@@H]1CC[C@H]2[C@@H](C)C(OC(=O)N3CC4(CCNC4=O)C3)O[C@H]3O[C@@]4(C)CC[C@@H]1[C@]32OO4` (stereo partly drawn) [PT-30, (3R,5aS,6R,8aS,9R,12S,12aR)-decahydro-3,6,9-trimethyl-3,12-epoxy-12H-pyrano[4,3-j]-1,2-benzodioxepin-10-yl 5-oxo-2,6-diazaspiro[3.4]octane-2-carboxylate], the solubility in the data set “Solubility of PT-30” (aqueous acidic conditions, aqueous buffer) was below 100 µg/mL; in “Solubility of PT-30” (fasted-state simulated intestinal fluid, fassif), around 700 µg/mL (≈ 1600 µM); in the data set “Solubility of PT-30” (fed-state simulated intestinal fluid, fessif), around 700 µg/mL (≈ 1600 µM); in “Solubility of PT-30” (simulated gastric fluid) it was below 100 µg/mL. Also, in the data set “Solubility of PT-30” (common organic solvents, greatest in methanol and tetrahydrofuran), the “solubility in organic solvents” value is listed as “soluble in common organic solvents”. Further, the antifibrotic efficacy entry in [1] and in [6] was “demonstrated antifibrotic efficacy” in each case. For the same compound, the bioavailability in data set [2] (PO) was 73%. The clearance in data set [2] (IV) was 30 mL/min/kg. For the same compound, the AUC(0-t) was 5300 ng·h/mL in [2] (IV, read-out: IV AUC0-last) and 40900 ng·h/mL in data set [2] (PO, read-out: PO AUC0-last). The half-life in [2] (IV, read-out: IV T1/2 (converted)) is 13.2 min; in data set [2] (PO, read-out: PO T1/2 (converted)) it was 20.4 min. The Vd in data set [2] (IV, read-out: IV VD,ss) was 0.6 L/kg. Further, the “antifibrotic efficacy, effect on acta2, colla1, and CTGF” value in data set [3] is “demonstrated antifibrotic efficacy”. Moreover, in data set [4], the “activity in HEK Blue-TLR4 reporter assay (inhibition of MD2 signaling pathway)” value is on record as “active”. For the same compound, the “chemical and crystal form stability” value in data set [5] (25° C./60% RH for 1 week) and in data set [5] (40° C./75% RH for 1 week) was “chemically stable without crystal form change” throughout. Besides, the “hygroscopicity, water uptake” value in “Hygroscopicity of PT-30” came to 0.5%. For the same compound, the recovery in the data set “in vitro” (human) came out at 84.9%; in the data set “in vitro” (mouse), 87.6%. The unbound share (fraction unbound) in the data set “in vitro” (human) was found to be 0.455; in the data set “in vitro” (mouse), 0.079. Further, in data set [7], the “antifibrotic efficacy in this model” value is on record as “demonstrated antifibrotic efficacy”.
